Data published in US12629345B2, “Methods, compositions, and devices for drug / live cell microarrays” (Pathak Holdings LLC, priority 2013, dated 2026).
“Also recorded” adds a separate entry of the source. Counter-ions that a name gives are not always drawn.

Columns and labels:
Type in all cases: physicochemical
[1] = Bupivacaine base release from PLGA microimplants formed with oscillating needle in bovine pericardium; settings: PDLG 5002 in DMSO infused by oscillating needle, PBS 37 degree C.
Procedure: Oscillating needle such as tattoo needle may be used to create cavities in the tissue or skin. A commercial tattoo machine as described in the related application (U.S. Pat. No. 9,072,678, cited herein for reference only) is used. The 500-1000 micron size tattoo needle is used and the oscillation frequency was 10 to 12000 oscillations per minute. About 1 square centimeter area was treated with the tattoo needle for 1 minute. The pores created by the tattoo machine repeated needle insertion were used to fill the injectable composition such PLGA solutions with the drug as described before. Alternatively, polymer solution is first applied on the tissue surface to form a solution layer and then the tattoo needle is used to create holes through the solution. The needle goes in and out of the tissue surface and carries the solution with it inside the cavity created. The deposited solution inside the cavity is precipitated by the tissue fluids and the precipitated polymer releases the drug in a sustained manner. Additional information about tattoo based methods can be found on related applications cited herein for reference only. […] The concentration of bupivacaine in the eluted samples is monitored using UV spectrophotometer. […]

[2] = Bupivacaine hydrochloride release from in situ PLGA implant with and without magnesium carbonate filler; settings: FIG. 21B
Procedure: 100.2 mg PDLG 5002 polymer is dissolved in 1.0 ml DMSO. 10 microliters of methylene blue stock solution (10 mg methylene blue in 2 ml DMSO) is added to the polymer solution as a colorant. Infusion solutions are prepared using the following method: 15.2 mg bupivacaine hydrochloride and 0.50 ml polymer solution are mixed until drug is completely dissolved. 50 mg magnesium carbonate powder (fine powder sieved to collect fraction below 300 microns in size) is added as a biocompatible and biodegradable filler in the drug solution and the mixture is vigorously vortexed for 5 minutes. The magnesium carbonate suspension is infused/tattooed using an oscillating needle in 1 cm square area of sheep skin tissue. Excess solution from the tattooed surface is wiped off. The light blue tattoo with magnesium particles is clearly seen the by unaided naked eye.
Similarly, a polymer solution without magnesium carbonate is prepared and infused/tattooed in the sheep skin tissue as above. The infused tissue sample is cut and used in controlled release experiment.
The cut samples are placed in 3 mL of PBS (pH 7.4). The drug eluted PBS is collected at several time points. Fresh PBS is added to replace the eluted PBS solution. The collected PBS is analyzed using a UV spectrophotometer to determine the drug concentration.

[3] = Rifampin release from encapsulated microspheres in microimplant array in sheep skin tissue; settings: PLGA microspheres in glycerol, 33 MP array, PBS 37 degree C., FIG. 14
Procedure: Rifampin containing red/yellow microspheres are prepared using spray drying method or prepared according to Example 3. Microspheres are prepared using PLGA polymer (PDLG 5002 from Purac) polymer with 20 percent rifampin loading relative to the polymer plus drug weight. Control PLGA microspheres without rifampin are prepared under identical spry drying conditions. 4.9 mg of rifampin encapsulated microspheres are suspended in 0.25 ml glycerol. One/two drops of the suspension are added on the 2 by 2 cm glutaraldehyde fixed sheep tissue. The 33 MP microarray needles are pressed on the tissue via rifampin suspension to create 3 by 3 micro array cavities and infuse the cavities with the rifampin microspheres. The procedure is repeated 9 times on the same tissue at different locations to create 135 micro cavities loaded with rifampin microspheres. The excess suspension is wiped of using tissue paper. No loosely adherent microspheres in the tissue are noticed. The glycerol in the suspension is dissipated in the tissue leaving behind the microspheres in the cavities. […] The rifampin treated tissue and control tissue are incubated at 37 degree C. in 3 ml PBS and rifampin in treated and control samples is monitored at various time points. Rifampin concentration in the eluted samples is analyzed using UV-VIS spectrophotometer (wavelength 474 nm).

CCCCN1CCCCC1C(=O)Nc1c(C)cccc1C (centres unmarked) [bupivacaine base, bupivacaine]
sustained release of bupivacaine base from in situ formed implant ([1]; FIG. 13): several days | sustained release of bupivacaine base from in situ formed implant ([1]; FIG. 13, listed as bupivacaine): released in a sustained manner; also recorded: few days

CCCCN1CCCCC1C(=O)Nc1c(C)cccc1C (centres unmarked) [bupivacaine hydrochloride]
duration of release of bupivacaine hydrochloride ([2]; PLGA array implant with magnesium carbonate filler, hydrochloride): several days; also recorded: much longer sustained release | duration of release of bupivacaine hydrochloride ([2]; PLGA array implant without magnesium carbonate): one to two days

CO[C@H]1/C=C/O[C@@]2(C)Oc3c(C)c(O)c4c(O)c(c(/C=N/N5CCN(C)CC5)c(O)c4c3C2=O)NC(=O)/C(C)=C\C=C\[C@H](C)[C@H](O)[C@@H](C)[C@@H](O)[C@@H](C)[C@H](OC(C)=O)[C@@H]1C [rifampin]
release of rifampin from microspheres in microimplant array [3]: sustained release
